# According to patent publication US20240201189A1, “FLUORESCENT PROBE FOR USE IN DETECTION OF PANCREATIC CANCER” (The University of Tokyo, priority 2021, published 2024):
# Several values for one entry are separate records, joined by “and”; a condition that tells them apart may be missing. Equal values may be shown once.
# Assays:
# [1] = tested on: lysates prepared from tissue fragments of carcinomatous and non-carcinomatous sites (pancreatic cancer resected specimens); experiment: Primary screening: increase in FI of probes mixed with lysates of carcinomatous and non-carcinomatous tissue; format: biochemical, human; conditions: lysates from five patients; probe 1.0 μM; 60 minutes, 37° C.; FIG. 1A
# Protocol: First, according to the procedure described in Non Patent Literatures 6 to 8, each of lysates prepared from tissue fragments of carcinomatous and non-carcinomatous sites was mixed with a fluorescent probe, an increased value of fluorescence intensity was measured, and a fluorescent probe as a candidate was selected. Briefly, 5 μL of a lysate (protein concentration: 0.20 mg/dL) was added dropwise to a well of a black 384 plate in which 15 μL of a library of dipeptide-HMRG compounds (Non Patent Literature 8) was arranged. Final concentrations of the candidate probe and the lysate protein were 1.0 μM and 0.050 mg/dL, respectively.
# The fluorescence intensity (FI) of each sample was measured at 0 minutes and 60 minutes after mixing with Envision Multilabel Plate Reader (PerkinElmer, Massachusetts, USA) while performing incubation at 37° C. Excitation and emission wavelengths were set to 485 nm and 535 nm, respectively. An increase in FI was defined as follows.
# (Increase in FI)=(FI after 60 minutes)−(FI after 0 minutes)
# Probes with the top 10% difference or ratio in the increase in FI in the carcinomatous and non-carcinomatous lysates were selected as candidate probes and evaluated as follows.
# [2] = tested on: pancreatic cancer tissue in surgically resected specimen; experiment: Fluorescence imaging of cut surface of surgically resected pancreatic cancer specimens (TBR); format: cell-based, human
# Protocol: Immediately after the pancreatic cancer specimen was extracted, the pancreatic cancer specimen was cut so as to include a maximum diameter of pancreatic cancer tissue. Next, the fluorescent probe described above (4 mL, 50 μM) was directly applied to the cut surface and fluorescence imaging was performed using Maestro in Vivo imaging system as described above. The accuracy of the fluorescence imaging was evaluated by a surgeon (RT) and a pathologist (MT) with reference to histopathological findings on the same plane. In addition, a tumor/background ratio (TBR) was also calculated by measuring the increase in average FI from 1 minute to 30 minutes after probe administration in carcinomatous and non-carcinomatous sites based on macroscopic/microscopic findings of the cut surface and corresponding fluorescence images.
# [3] = biological target: T1, Human recombinant DPP-IV (Homo sapiens, UniProt P27487); experiment: Target enzyme search: change in FI of probe after adding DPP-IV; format: biochemical; conditions: probe 1.0 μM; 2,000 seconds; ex/em 495 nm/525 nm; FIG. 5A
# T1 construct: purchased Sigma-Aldrich D 4943
# T1 sequence (P27487 whole entry): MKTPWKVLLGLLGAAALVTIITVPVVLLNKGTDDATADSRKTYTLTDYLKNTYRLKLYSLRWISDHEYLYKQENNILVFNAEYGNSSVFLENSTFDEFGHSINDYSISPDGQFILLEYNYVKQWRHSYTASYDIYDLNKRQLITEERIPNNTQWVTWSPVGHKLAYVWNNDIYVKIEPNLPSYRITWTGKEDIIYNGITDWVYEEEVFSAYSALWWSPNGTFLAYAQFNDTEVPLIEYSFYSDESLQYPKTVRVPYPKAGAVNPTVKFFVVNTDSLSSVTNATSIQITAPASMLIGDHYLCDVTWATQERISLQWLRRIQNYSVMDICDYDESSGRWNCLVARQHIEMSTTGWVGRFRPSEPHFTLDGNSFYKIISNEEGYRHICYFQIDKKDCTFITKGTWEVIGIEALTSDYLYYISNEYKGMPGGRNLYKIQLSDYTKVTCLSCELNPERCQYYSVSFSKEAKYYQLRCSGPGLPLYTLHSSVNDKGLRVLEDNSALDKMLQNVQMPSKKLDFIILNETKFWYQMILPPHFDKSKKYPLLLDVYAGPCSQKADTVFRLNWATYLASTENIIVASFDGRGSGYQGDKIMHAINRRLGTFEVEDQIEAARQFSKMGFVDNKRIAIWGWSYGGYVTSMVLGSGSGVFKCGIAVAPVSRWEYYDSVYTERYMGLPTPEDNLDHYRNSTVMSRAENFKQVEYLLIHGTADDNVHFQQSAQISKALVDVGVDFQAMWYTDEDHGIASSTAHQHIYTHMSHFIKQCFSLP
# Protocol: (§1) It was considered that dipeptidyl peptidase 4 (DPP-IV) or a similar enzyme was a target enzyme overexpressed in pancreatic cancer tissue. First, the candidate fluorescent probe was examined whether DPP-IV or the similar enzyme was activated. Human recombinant DPP-IV (50 μL; D 4943, Sigma-Aldrich), DPP-VIII (1.0 μg; ab162872, abcam), and DPP-IX (1.0 μg; ab79621, abcam) were injected into 3.0 mL of a probe solution (1.0 μM) using F-7000 (Hitachi (Tokyo)), and a change in FI during 2,000 seconds was measured. Excitation and emission wavelengths were set to 495 and 525 nm, respectively.
# [4] = biological target: T2, Human recombinant DPP-IX (Homo sapiens, UniProt Q86TI2); experiment: Target enzyme search: change in FI of probe after adding DPP-IX; format: biochemical; conditions: probe 1.0 μM; 2,000 seconds; ex/em 495 nm/525 nm; FIG. 5C
# T2 construct: purchased abcam ab79621
# T2 sequence (Q86TI2 whole entry): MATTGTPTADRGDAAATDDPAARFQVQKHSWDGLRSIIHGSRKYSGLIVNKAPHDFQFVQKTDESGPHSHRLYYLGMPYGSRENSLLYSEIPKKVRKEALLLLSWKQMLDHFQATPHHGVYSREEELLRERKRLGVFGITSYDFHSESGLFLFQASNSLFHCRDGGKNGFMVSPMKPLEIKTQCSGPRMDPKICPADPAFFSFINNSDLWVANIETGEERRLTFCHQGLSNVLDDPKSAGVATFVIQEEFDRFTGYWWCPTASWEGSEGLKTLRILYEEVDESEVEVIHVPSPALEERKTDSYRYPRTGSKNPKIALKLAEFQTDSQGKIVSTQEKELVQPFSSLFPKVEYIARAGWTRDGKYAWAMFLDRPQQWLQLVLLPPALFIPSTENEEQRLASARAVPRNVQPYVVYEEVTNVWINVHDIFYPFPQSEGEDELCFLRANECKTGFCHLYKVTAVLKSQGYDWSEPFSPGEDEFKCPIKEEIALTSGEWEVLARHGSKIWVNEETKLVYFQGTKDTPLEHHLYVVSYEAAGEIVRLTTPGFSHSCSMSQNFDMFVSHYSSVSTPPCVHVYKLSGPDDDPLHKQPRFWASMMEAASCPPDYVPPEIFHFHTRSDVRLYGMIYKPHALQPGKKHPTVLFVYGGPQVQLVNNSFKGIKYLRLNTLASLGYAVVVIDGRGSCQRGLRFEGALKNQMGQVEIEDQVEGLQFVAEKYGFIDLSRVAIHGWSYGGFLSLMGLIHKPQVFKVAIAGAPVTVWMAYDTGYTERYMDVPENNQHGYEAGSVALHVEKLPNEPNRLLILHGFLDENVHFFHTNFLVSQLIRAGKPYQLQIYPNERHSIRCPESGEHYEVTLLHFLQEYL
# Protocol: as §1
smiles,measurement,setting,value
Nc1ccc2c(c1)Oc1cc(NC(=O)[C@@H]3CCCN3C(=O)[C@@H](N)Cc3ccc(O)cc3)ccc1C21OCc2ccccc21 (stereo partly drawn) [YP-HMRG],increase in FI in carcinomatous tissue as opposed to non-carcinomatous tissue (lysates),[1],significant increase in FI in carcinomatous tissue
NCC(=O)N1CCC[C@H]1C(=O)Nc1ccc2c(c1)Oc1cc(N)ccc1C21OCc2ccccc21 (stereo partly drawn) [GP-HMRG],increase in FI in carcinomatous tissue as opposed to non-carcinomatous tissue (lysates),[1],significant increase in FI in carcinomatous tissue
same,average TBR of the fluorescence images,"[2]; 30 minutes after spraying, eight patients","1.96 (range, 1.31 to 2.04)"
same,TBR in the connective tissue surrounding the splenic artery,"[2]; Patient No. 8, after preoperative chemotherapy, cancer invasion",2.04
same,TBR of the main tumor,"[2]; Patient No. 8, after preoperative chemotherapy, fibrosis and mucinous changes, few viable cancer cells",1.13
same,time from which increase in fluorescence signal in carcinomatous tissue was confirmed,[2]; after topical administration,1 min
same,TBR in patients with uniform fluorescence signal of carcinomatous tissue,"[2]; four of eight patients (Patient Nos. 1, 2, 4 and 5)",> 1.9
same,A TBR ratio of FI,"[2]; one value per patient (Patients 1-8), cut surface, increase in average FI from 1 to 30 minutes, probe 4 mL, 50 μM",1.98 (2×) and 1.93 and 1.47 and 1.26 and 1.13 and 3.44 and 2.06
same,conversion of probe into fluorescent HMRG in reaction with DPP-IV,[3],converted into a highly fluorescent HMRG
same,conversion of probe into fluorescent HMRG in reaction with DPP-IX,[4],converted into a highly fluorescent HMRG
CC(C)C[C@H](N)C(=O)N1CCC[C@H]1C(=O)Nc1ccc2c(c1)Oc1cc(N)ccc1C21OCc2ccccc21 (stereo partly drawn) [LP-HMRG],increase in FI in carcinomatous tissue as opposed to non-carcinomatous tissue (lysates),[1],significant increase in FI in carcinomatous tissue
Nc1ccc2c(c1)Oc1cc(NC(=O)[C@@H]3CCCN3C(=O)[C@@H]3CCCN3)ccc1C21OCc2ccccc21 (stereo partly drawn) [PP-HMRG],increase in FI in carcinomatous tissue as opposed to non-carcinomatous tissue (lysates),[1],significant increase in FI in carcinomatous tissue
